Where two headings read alike, the source gives them in different places.
Tests used:
[1] = ITC, metal binding to mb: Ag(I); details: Ag(I) column
Method: (§1) FIG. 14. Binding isotherm of 3.2 mM HgCl2 (A), HAuCl4 (B), AgNO3 (C) NiCl2 (D), ZnCl2 (E) or FeCl3 (F) into 400 μM mb (cell) aqueous solution at 25° C. Binding isotherm of 1.6 mM HAuCl4 (B). The curve fittings for two-site binding algorithm were used.
(§2) FIG. 15. Binding isotherm of 3.2 mM CdCl2 (A), CoCl2(B), FeCl3 (C), or MnCl2(D) into […] mb aqueous solution at 25° C. Curve fittings for one-site binding algorithm (B, D) or two-site binding algorithm (A, C) were used.
(§3) ITC was performed with following modifications from the previously described procedure (Choi et al., 2006). First, concentrations of the titrant and cell solutions were raised to 3.2 mM and 0.4 mM, respectively. Second, the interval between titrant injections were decreased to 600 s and the stirring rate decreased to 380 rpm.

[2] = ITC, metal binding to mb: Au(III); details: column headed Au(II)
Method: as §1, §2, §3

[3] = ITC, metal binding to mb: Hg(II); details: Hg(II) column
Method: as §1, §2, §3

[4] = ITC, metal binding to mb: Pb(II); details: Pb(II) column, one-site binding model
Method: as §1, §2, §3

[5] = ITC, metal binding to mb: Cd(II); details: Cd(II) column
Method: as §1, §2, §3

[6] = ITC, metal binding to mb: Co(II); details: Co(II) column, one-site fit, 25° C.
Method: as §1, §2, §3

[7] = ITC, metal binding to mb: Fe(III); details: Fe(III) column
Method: as §1, §2, §3

[8] = ITC, metal binding to mb: Mn(II); details: Mn(II) column, one-site fit, 25° C.
Method: as §1, §2, §3

[9] = ITC, metal binding to mb: Ni(II); details: Ni(II) column
Method: as §1, §2, §3

[10] = ITC, metal binding to mb: Zn(II); details: Zn(II) column
Method: as §1, §2, §3

[11] = Initial screening by UV-visible absorption spectroscopy: Ag(I); assay type: binding; details: in the absence of Cu(II) or Cu(I)
Method: (§4) Metal titration experiments were determined by addition of 100 μM, 1 mM, or 10 mM solutions of AgNO3, HAuCl4, CdCl2, CoCl2, CrO3, CuSO4, FeCl3, HgCl2, MgCl2, MnCl2, NiCl2, Pb(NO3)2, UO2(NO3)2, or ZnSO4 to 50 μM methanobactin dissolved in H2O, pH 6.8 as previously described for Cu(II) or Cu(I) titrations (Choi et al., 2006) unless otherwise stated. Glassware was soaked in 0.1 N HNO3 for 12 hours then rinsed with milliQ H2O. For the metal replacement experiments, 50 μM aqueous mb solutions were preloaded with equimolar of AgNO3, HAuCl4, CaCl2, CdCl2, CoCl2, CrO3, CuSO4, FeCl3, HgCl2, MgCl2, MnCl2, NiCl2, Pb(NO3)2, UO2(NO3)2, or ZnSO4, incubated for 10 minutes followed by the addition of equimolar CuSO4 then monitored via UV-visible absorption spectroscopy every 30 seconds for 0.5-120 minutes. Between scans the samples were stored in the dark to avoid photodegradation (Choi et al., 2005).
(§5) UV-visible absorption, florescence spectra, circular dichroism (CD), and metal determinations via inductively coupled plasma atomic emission-mass spectroscopy (ICP-MS) were determined as previously described (Choi et al., 2003; Choi et al., 2006). In contrast to a previous report (Choi et al., 2006), the base line was used as a reference point of 0 instead of isosbestic point e for the comparison of Δεs.

[12] = Initial screening by UV-visible absorption spectroscopy: Au(III); assay type: binding; details: in the absence of Cu(II) or Cu(I)
Method: as §4, §5

[13] = Initial screening by UV-visible absorption spectroscopy: Cd(II); assay type: binding; details: in the absence of Cu(II) or Cu(I)
Method: as §4, §5

[14] = Initial screening by UV-visible absorption spectroscopy: Co(II); assay type: binding; details: in the absence of Cu(II) or Cu(I)
Method: as §4, §5

[15] = Initial screening by UV-visible absorption spectroscopy: Fe(III); assay type: binding; details: in the absence of Cu(II) or Cu(I)
Method: as §4, §5

[16] = Initial screening by UV-visible absorption spectroscopy: Hg(II); assay type: binding; details: in the absence of Cu(II) or Cu(I)
Method: as §4, §5

[17] = Initial screening by UV-visible absorption spectroscopy: Mn(II); assay type: binding; details: in the absence of Cu(II) or Cu(I)
Method: as §4, §5

[18] = Initial screening by UV-visible absorption spectroscopy: Ni(II); assay type: binding; details: in the absence of Cu(II) or Cu(I)
Method: as §4, §5

[19] = Initial screening by UV-visible absorption spectroscopy: Pb(II); assay type: binding; details: in the absence of Cu(II) or Cu(I)
Method: as §4, §5

[20] = Initial screening by UV-visible absorption spectroscopy: U(VI); assay type: binding; details: in the absence of Cu(II) or Cu(I)
Method: as §4, §5

[21] = Initial screening by UV-visible absorption spectroscopy: Zn(II); assay type: binding; details: in the absence of Cu(II) or Cu(I)
Method: as §4, §5

[22] = Initial screening by UV-visible absorption spectroscopy: Ba(II); assay type: binding; details: in the absence of Cu(II) or Cu(I)
[23] = Initial screening by UV-visible absorption spectroscopy: La(III); assay type: binding; details: in the absence of Cu(II) or Cu(I)
[24] = Initial screening by UV-visible absorption spectroscopy: Mg(II); assay type: binding; details: in the absence of Cu(II) or Cu(I)
Method: as §4, §5

[25] = Initial screening by UV-visible absorption spectroscopy: Sr(II); assay type: binding; details: in the absence of Cu(II) or Cu(I)
[26] = XPS, oxidation state of metal bound to mb: Au(III)
Description: FIG. 11. (A) Gold X-ray photoelectric spectra of mb at gold to mb molar ratios between 0.05 and 10 Au per mb. (B) Corrected signal from Au(0) (◯) and Au(III) (●) at different gold:mb molar ratios.
(§6) XPS was preformed on a model Phoibos-150 hemispherical analyzer (SPECS Scientific Instruments, Sarasota, Fla.) or on a model 5600ci spectrophotometer (Perkin-Elmer Inc., Eden Prairie, Minn.) as previously described (Choi et al., 2006).

[27] = XPS, oxidation state of metal bound to mb: Ni(II)
Description: as §6

[28] = Cu(II) column, cited from earlier work
[29] = first site, two-site fit, 25° C.

methanobactin [mb]
K1 [1, 29]: 2.6 ± 0.4 × 10^7 M^−1 | K1 ([1]; second site): 4.7 ± 0.45 × 10^4 M^−1 | K1 [2, 29]: 1.0 ± 0.5 × 10^5 M^−1 | K1 ([2]; second site): 1.8 ± 0.2 × 10^5 M^−1 | K1 [3, 29]: 9.9 ± 2.9 × 10^6 M^−1 | K1 ([3]; second site): 89.9 ± 0.01 × 10^4 M^−1 | K1 [4]: 6.84 ± 0.4 × 10^5 M^−1 | K1 [5, 29]: 1.3 ± 0.8 × 10^6 M^−1 | K1 ([5]; second site): 1.1 ± 0.6 × 10^7 M^−1 | K1 [6]: 1.1 ± 0.2 × 10^6 M^−1 | K1 [7, 29]: 9.7 ± 0.6 × 10^5 M^−1 | K1 ([7]; second site): 1.7 ± 0.7 x10^5 M^−1 | K1 [8]: 7.7 ± 1.8 × 10^5 M^−1 | K1 [9, 29]: 4.9 ± 0.9 × 10^5 M^−1 | K1 ([9]; second site): 1.17 ± 0.5 × 10^7 M^−1 | K1 [10, 29]: 4.5 ± 1.4 × 10^6 M^−1 | K1 ([10]; second site): 1.8 ± 0.1 × 10^4 M^−1 | binding of Ag(I) by mb [11]: will bind | binding of Au(III) by mb [12]: will bind | binding of Cd(II) by mb [13]: will bind | binding of Co(II) by mb [14]: will bind | binding of Fe(III) by mb [15]: will bind | binding of Hg(II) by mb [16]: will bind | binding of Mn(II) by mb [17]: will bind | binding of Ni(II) by mb [18]: will bind | binding of Pb(II) by mb [19]: will bind | binding of U(VI) by mb [20]: will bind | binding of Zn(II) by mb [21]: will bind | binding of Ba(II) by mb [22]: not | binding of La(III) by mb [23]: not | binding of Mg(II) by mb [24]: not | binding of Sr(II) by mb [25]: not | Au to mb ratio above which Au(III) is detected in reaction mixtures [26]: > 2 Au(III) per mb | oxidation state of Au(III) after binding by mb ([26]; no external reductant): reduced to Au(0) | oxidation state of Ni(II) following binding to mb [27]: did not change | K1 ([28]; first site): 3.3e+34 ± 3e+11 M⁻¹ | K1 ([28]; second site): 2.6 ± 0.5 × 10^8 M^−1

From patent US8735538B1, “Use of methanobactin” (priority 2006, dated 2014)
